Laboratory results: the NIST ThermoML archive (doi:10.1016/j.jct.2011.10.009)
Numbers after ± are expanded uncertainties.

Conditions: 101.33 kPa, Liquid, Vibrating tube method

Compound	mass density (278.15 K) [kg/m3]	mass density (288.15 K) [kg/m3]	mass density (298.15 K) [kg/m3]	mass density (308.15 K) [kg/m3]	mass density (318.15 K) [kg/m3]
[2H]C(C)O (stereo not given) [ethanol-1-d]	818.95 ± 0.14	810.32 ± 0.14	801.57 ± 0.14	792.68 ± 0.15	783.63 ± 0.15
CCO [ethanol]	802.08 ± 0.11	793.6 ± 0.12	785.03 ± 0.12	776.35 ± 0.12	767.54 ± 0.13
